# Data reported in patent US12344615B2, “Substituted pyridines as ion channel modulators” (PRAXIS PRECISION MEDICINES, INC., priority 2019, dated 2025).
# Biological target: T1, INaL v1.6 (late sodium current, HEK-293 cells expressing recombinant sodium channels) (Homo sapiens, UniProt Q9UQD0)
# T1 construct: expressed in transfected cells; host or cells: HEK-293
# Assay: Inhibition of ATX-II evoked Nav late current (INaL), PatchXpress electrophysiology
# Format: cell-based
# Conditions: HEK293, compound at 1 μM, late current evoked by ATX-II 300 nM
# Procedure: Functional characterization of exemplary compounds to modulate voltage gated sodium currents was accomplished using the PatchXpress™ high throughput electrophysiology platforms (Molecular Devices, Sunnyvale, CA). HEK-293 cells expressing recombinant sodium channels were grown in DMEM/high-glucose Dulbecco's modified, 10% FBS, 2 mM sodium pyruvate, and G418. Nav channel expressing cells were grown to 50%-80% confluency and harvested by trypsinization. Trypsinized cells were washed and resuspended in extracellular buffer at a concentration of 1×10^6 cells/ml. The onboard liquid handling facility of the PatchXpress was used for dispensing cells and application of test compounds. Nav late currents were evoked by the application of ATX-II, 300 nM. Currents were evoked by depolarizing pulses to 0 mV for 200 ms from a non-inactivating holding potential (e.g., −120 mV to −150 mV) at a frequency of 0.1 Hz. Late current amplitude and stability were determined by analyzing the mean current amplitude over the 175-195 msec region of the 200 msec test pulse. Following steady state block with exemplary compounds (e.g., as described herein) at 1 μM, a Na^+ free solution containing an impermeant cation (e.g., Choline or NDMG) was added for determination of the 0 current level. Late current amplitudes for each test condition were determined from the mean of the 175-195 msec region of the 200 msec test pulse. Percent inhibition of steady state currents was calculated as (compound−baseline)/(control−baseline)*100, where control represents INaL recorded in the absence of compound.
# T1 sequence (Q9UQD0 whole entry): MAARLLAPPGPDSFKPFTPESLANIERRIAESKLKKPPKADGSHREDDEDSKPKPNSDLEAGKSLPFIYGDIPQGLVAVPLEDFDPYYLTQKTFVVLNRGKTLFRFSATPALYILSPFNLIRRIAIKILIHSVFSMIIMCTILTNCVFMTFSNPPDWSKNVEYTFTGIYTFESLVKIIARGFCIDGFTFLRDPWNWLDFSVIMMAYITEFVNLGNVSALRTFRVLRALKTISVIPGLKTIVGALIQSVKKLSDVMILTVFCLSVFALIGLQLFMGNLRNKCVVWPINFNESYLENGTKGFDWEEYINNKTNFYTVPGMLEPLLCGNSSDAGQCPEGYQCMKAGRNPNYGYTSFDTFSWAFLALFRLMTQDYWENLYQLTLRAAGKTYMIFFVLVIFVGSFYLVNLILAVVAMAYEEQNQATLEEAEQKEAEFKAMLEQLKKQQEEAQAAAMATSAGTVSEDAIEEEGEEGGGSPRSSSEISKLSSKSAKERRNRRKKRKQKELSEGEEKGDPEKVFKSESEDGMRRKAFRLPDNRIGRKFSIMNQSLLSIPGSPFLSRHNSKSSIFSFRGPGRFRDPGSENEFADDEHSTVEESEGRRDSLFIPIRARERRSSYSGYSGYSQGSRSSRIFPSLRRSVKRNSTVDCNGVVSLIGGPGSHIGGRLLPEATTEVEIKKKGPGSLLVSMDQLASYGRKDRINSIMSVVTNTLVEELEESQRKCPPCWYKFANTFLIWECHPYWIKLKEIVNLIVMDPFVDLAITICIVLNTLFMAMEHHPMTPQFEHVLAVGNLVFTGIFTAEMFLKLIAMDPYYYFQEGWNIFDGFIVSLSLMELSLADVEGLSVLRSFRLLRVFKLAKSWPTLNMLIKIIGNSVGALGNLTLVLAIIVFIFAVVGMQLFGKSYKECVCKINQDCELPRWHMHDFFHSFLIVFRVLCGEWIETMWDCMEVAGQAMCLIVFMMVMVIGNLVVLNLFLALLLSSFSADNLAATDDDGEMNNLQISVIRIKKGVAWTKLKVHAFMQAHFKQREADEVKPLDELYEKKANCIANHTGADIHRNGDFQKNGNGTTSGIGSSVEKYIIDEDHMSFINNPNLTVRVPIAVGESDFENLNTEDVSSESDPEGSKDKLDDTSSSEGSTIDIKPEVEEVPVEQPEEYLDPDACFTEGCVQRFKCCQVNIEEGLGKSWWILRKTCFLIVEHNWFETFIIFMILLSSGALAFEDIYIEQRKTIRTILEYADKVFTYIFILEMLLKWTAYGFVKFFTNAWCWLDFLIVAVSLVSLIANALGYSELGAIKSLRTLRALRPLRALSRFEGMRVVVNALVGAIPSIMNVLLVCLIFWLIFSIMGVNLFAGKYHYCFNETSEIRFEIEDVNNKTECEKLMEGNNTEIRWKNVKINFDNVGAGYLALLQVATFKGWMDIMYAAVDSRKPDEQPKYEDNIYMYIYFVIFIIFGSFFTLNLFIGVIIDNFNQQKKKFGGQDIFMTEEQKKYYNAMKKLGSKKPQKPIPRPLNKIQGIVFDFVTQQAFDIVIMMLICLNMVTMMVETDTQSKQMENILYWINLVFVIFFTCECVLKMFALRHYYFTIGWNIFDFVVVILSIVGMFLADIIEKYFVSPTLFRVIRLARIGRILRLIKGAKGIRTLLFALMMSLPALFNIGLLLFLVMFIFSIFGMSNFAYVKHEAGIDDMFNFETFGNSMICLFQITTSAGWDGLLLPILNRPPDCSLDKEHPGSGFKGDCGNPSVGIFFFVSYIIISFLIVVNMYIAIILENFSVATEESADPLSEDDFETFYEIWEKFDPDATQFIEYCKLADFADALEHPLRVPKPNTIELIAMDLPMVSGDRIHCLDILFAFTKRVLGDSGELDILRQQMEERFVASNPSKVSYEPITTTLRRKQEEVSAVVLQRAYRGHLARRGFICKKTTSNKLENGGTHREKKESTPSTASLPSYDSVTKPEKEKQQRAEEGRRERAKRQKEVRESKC
row,SMILES,inhibition at 1 µM
1,"Cc1cc2nnc(C(F)(F)F)n2nc1-c1cnc(O[C@@H](C)C(F)(F)F)c(F)c1 [Compound 44, (S)-6-(5-fluoro-6-((1,1,1-trifluoropropan-2-yl)oxy)pyridin-3-yl)-7-methyl-3-(trifluoromethyl)-[1,2,4]triazolo[4,3-b]pyridazine]",> 75%
2,"C[C@H](Oc1ncc(-c2ccc3nnc(C(F)F)n3n2)cc1F)C(F)(F)F [Compound 15, 3-(difluoromethyl)-6-[5-fluoro-6-[(1S)-2,2,2-trifluoro-1-methyl-ethoxy]-3-pyridyl]-[1,2,4]triazolo[4,3-b]pyridazine]",> 75%
3,"CC(C)(Oc1ncc(-c2cn3c(C4CC(F)(F)C4)nnc3cn2)cc1F)C(F)(F)F [Compound 8, 3-(3,3-difluorocyclobutyl)-6-[5-fluoro-6-(2,2,2-trifluoro-1,1-dimethyl-ethoxy)-3-pyridyl]-[1,2,4]triazolo[4,3-a]pyrazine]",50 to 75%
4,"Fc1cc(-c2ccc3nnc(C(F)F)n3n2)cnc1OCC1CC1(F)F (single isomer, unassigned) [21 (Isomer 1)]",50 to 75%
5,"C[C@@H](Oc1ccc(-c2nn3c(C(F)(F)F)nnc3cc2Cl)cn1)C(F)(F)F [Compound 47, (R)-7-chloro-3-(trifluoromethyl)-6-(6-((1,1,1-trifluoropropan-2-yl)oxy)pyridin-3-yl)-[1,2,4]triazolo[4,3-b]pyridazine]",50 to 75%
6,"Cc1cc2nnc(C(F)(F)F)n2nc1-c1cnc(O[C@H](C)C(F)(F)F)c(F)c1 [Compound 45, (R)-6-(5-fluoro-6-((1,1,1-trifluoropropan-2-yl)oxy)pyridin-3-yl)-7-methyl-3-(trifluoromethyl)-[1,2,4]triazolo[4,3-b]pyridazine]",50 to 75%
7,"Cc1c(-c2cnc(O[C@H](C)C(F)(F)F)c(F)c2)ncc2nnc(C(F)(F)F)n12 [Compound 39, 6-[5-fluoro-6-[(1R)-2,2,2-trifluoro-1-methyl-ethoxy]-3-pyridyl]-5-methyl-3-(trifluoromethyl)-[1,2,4]triazolo[4,3-a]pyrazine]",50 to 75%
8,"CC(C)(Oc1ccc(-c2nn3c(C(F)(F)F)nnc3cc2Cl)cn1)C(F)(F)F [Compound 50, 7-chloro-6-[6-(2,2,2-trifluoro-1,1-dimethyl-ethoxy)-3-pyridyl]-3-(trifluoromethyl)-[1,2,4]triazolo[4,3-b]pyridazine]",> 75%
9,"C[C@@H](Oc1ncc(-c2ccc3nnc(C(F)F)n3n2)cc1F)C(F)(F)F [Compound 17, 3-(difluoromethyl)-6-[5-fluoro-6-[(1R)-2,2,2-trifluoro-1-methyl-ethoxy]-3-pyridyl]-[1,2,4]triazolo[4,3-b]pyridazine]",> 75%
10,"Fc1cc(-c2ccc3nnc(C(F)(F)F)n3n2)cnc1OCC1CC1(F)F (centres unmarked) [Compound 24, 6-[6-[(2,2-difluorocyclopropyl)methoxy]-5-fluoro-3-pyridyl]-3-(trifluoromethyl)-[1,2,4]triazolo[4,3-b]pyridazine]",50 to 75%
11,"Cc1cc2nnc(C(F)(F)F)n2nc1-c1ccc(O[C@@H](C)C(F)(F)F)nc1 [Compound 48, (S)-7-methyl-3-(trifluoromethyl)-6-(6-((1,1,1-trifluoropropan-2-yl)oxy)pyridin-3-yl)-[1,2,4]triazolo[4,3-b]pyridazine]",> 75%
12,"Cc1cc2nnc(C(F)(F)F)n2nc1-c1cnc(OC(C)(C)C(F)(F)F)c(F)c1 [Compound 40, 6-[5-fluoro-6-(2,2,2-trifluoro-1,1-dimethyl-ethoxy)-3-pyridyl]-7-methyl-3-(trifluoromethyl)-[1,2,4]triazolo[4,3-b]pyridazine]",> 75%
13,"Fc1cc(-c2cn3c(C(F)F)nnc3cn2)cnc1OCC1CC1(F)F (single isomer, unassigned) [30 (Isomer 1)]",< 50%
14,"Fc1cc(-c2ccc3nnc(C(F)(F)F)n3n2)cnc1OC1CC(F)(F)C1(F)F (single isomer, unassigned) [25 (Isomer 1)]",> 75%

# Same assay, conditions: compound at 1 μM, late current evoked by ATX-II 300 nM
row,SMILES,INaL v1.6 % Inhibition
1,"Fc1cc(-c2ccc3nnc(C(F)F)n3n2)cnc1OCC1CC1(F)F (single isomer, unassigned) [21 (Isomer 2)]",A (inhibition of less than 50%)
2,"CC(C)(Oc1ncc(-c2cn3c(C4CC4(F)F)nnc3cn2)cc1F)C(F)(F)F (single isomer, unassigned) [13 (Isomer 2)]",B (inhibition of 50% to 75%)
3,"C[C@@H](Oc1ncc(-c2cn3c(C4CC4(F)F)nnc3cn2)cc1F)C(F)(F)F (single isomer, unassigned) [16 (Isomer 2)]",B (inhibition of 50% to 75%)
